Experimental data taken from patent publication US7880007B2, “Bicyclic substituted phenyl piperidine modulators of muscarinic receptors” (Vertex Pharmaceuticals Incorporated, priority 2004, dated 2011).

Tests used:
Assay type in all cases: cell-based
[1] = molecular target: T1, M4 muscarinic receptor (Homo sapiens, UniProt P08173); experiment: Functional mobilization of intracellular calcium (FLIPR), M4-CHO cells; conditions: for Emax: 100% efficacy = maximum response obtained with the Carbachol control; for M4 Activity: M4-CHO cells, calcium mobilization (FLIPR)
T1 construct: expressed in transfected cells; host or cells: CHO (M4-CHO)
T1 sequence (P08173 1-479): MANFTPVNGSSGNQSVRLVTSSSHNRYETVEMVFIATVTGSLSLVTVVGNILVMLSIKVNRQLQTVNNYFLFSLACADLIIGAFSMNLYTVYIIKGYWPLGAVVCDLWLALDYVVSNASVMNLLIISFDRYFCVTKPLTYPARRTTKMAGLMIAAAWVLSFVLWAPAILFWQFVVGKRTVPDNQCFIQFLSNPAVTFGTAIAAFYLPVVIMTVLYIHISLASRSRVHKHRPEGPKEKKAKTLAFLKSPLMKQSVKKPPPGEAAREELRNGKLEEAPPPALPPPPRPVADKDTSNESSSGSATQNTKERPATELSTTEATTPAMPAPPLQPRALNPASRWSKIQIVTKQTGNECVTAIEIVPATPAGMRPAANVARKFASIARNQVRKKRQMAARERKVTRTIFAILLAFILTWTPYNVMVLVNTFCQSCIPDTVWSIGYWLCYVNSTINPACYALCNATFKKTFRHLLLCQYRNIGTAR
Procedure, shortened: (§1)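 FLIPR fluorescence (ex 488, em 540 nm) recorded 60 sec after compound addition to dye-loaded CHO cells. Agonist mode: compound alone. Antagonist mode: 15 min compound pre-incubation, then carbachol at EC80, or co-application. Efficacy expressed as % of maximal carbachol response.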

[2] = molecular target: T2, M1 muscarinic receptor (Homo sapiens, UniProt P11229); experiment: Functional mobilization of intracellular calcium (FLIPR), M1-CHO cells; conditions: for Emax: 100% efficacy = maximum response obtained with the Carbachol control; for M1 Activity: M1-CHO cells, calcium mobilization (FLIPR)
T2 construct: expressed in transfected cells; host or cells: CHO (M1-CHO)
T2 sequence (P11229 1-460): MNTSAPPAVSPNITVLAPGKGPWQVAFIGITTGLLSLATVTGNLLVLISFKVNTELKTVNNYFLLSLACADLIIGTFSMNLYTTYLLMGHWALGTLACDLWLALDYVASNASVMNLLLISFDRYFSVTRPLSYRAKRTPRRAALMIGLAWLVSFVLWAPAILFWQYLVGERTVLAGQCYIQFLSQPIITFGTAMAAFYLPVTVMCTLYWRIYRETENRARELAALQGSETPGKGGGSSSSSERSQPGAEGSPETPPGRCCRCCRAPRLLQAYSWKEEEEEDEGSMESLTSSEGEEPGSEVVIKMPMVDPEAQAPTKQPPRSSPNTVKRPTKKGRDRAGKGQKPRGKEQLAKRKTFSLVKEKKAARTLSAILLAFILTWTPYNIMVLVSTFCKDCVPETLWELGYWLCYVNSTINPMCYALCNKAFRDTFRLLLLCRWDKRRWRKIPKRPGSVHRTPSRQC
Procedure, shortened: as §1

[3] = molecular target: T3, M3 muscarinic receptor (Homo sapiens, UniProt P20309); experiment: Functional mobilization of intracellular calcium (FLIPR), M3-CHO cells; conditions: for Emax: 100% efficacy = maximum response obtained with the Carbachol control; for M3 Activity: M3-CHO cells, calcium mobilization (FLIPR)
T3 construct: expressed in transfected cells; host or cells: CHO (M3-CHO)
T3 sequence (P20309 whole entry): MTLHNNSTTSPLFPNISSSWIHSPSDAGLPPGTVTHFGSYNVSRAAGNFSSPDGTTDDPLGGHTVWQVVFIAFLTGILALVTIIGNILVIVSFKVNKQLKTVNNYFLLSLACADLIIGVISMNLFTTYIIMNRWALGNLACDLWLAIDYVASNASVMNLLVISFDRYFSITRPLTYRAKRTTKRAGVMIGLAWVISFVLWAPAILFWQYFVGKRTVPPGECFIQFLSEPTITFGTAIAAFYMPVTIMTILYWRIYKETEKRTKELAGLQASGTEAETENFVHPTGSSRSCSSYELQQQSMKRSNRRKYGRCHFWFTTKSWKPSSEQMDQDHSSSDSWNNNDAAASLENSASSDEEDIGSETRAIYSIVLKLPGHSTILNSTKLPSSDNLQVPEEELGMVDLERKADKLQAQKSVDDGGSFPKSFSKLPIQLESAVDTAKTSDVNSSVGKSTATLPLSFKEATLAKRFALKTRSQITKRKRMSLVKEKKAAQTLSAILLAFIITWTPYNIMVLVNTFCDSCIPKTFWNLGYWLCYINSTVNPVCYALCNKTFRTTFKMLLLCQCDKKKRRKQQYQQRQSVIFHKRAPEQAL
Procedure, shortened: as §1

[4] = molecular target: T4, M2 muscarinic receptor (Homo sapiens, UniProt P08172); experiment: Functional mobilization of intracellular calcium (FLIPR), M2-CHO cells; conditions: for Emax: 100% efficacy = maximum response obtained with the Carbachol control; for M2 Activity: M2-CHO cells, calcium mobilization (FLIPR)
T4 construct: expressed in transfected cells; host or cells: CHO (M2-CHO)
T4 sequence (P08172 1-466): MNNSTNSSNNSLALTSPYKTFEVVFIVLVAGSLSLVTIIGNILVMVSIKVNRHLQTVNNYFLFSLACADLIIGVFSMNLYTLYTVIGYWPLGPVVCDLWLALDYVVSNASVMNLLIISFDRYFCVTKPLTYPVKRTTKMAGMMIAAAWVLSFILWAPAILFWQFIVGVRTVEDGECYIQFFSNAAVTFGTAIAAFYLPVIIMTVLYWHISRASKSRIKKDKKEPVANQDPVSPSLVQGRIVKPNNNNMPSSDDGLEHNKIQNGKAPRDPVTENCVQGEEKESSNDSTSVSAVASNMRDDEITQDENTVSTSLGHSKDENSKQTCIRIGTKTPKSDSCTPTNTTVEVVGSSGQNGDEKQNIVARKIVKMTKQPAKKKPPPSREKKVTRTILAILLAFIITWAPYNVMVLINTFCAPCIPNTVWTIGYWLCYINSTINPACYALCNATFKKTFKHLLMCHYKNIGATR
Procedure, shortened: as §1

SMILES	Emax [1]	M4 Activity [1]	Emax [2]	M1 Activity [2]	Emax [3]	M3 Activity [3]	Emax [4]	M2 Activity [4]
COCCOc1ccccc1C1CCN([C@H]2C[C@H]3CC[C@H]2C3)CC1 [Compound 111]	25 to 100%	+++ (activity was measured to be less than 1.0 μM)	25 to 100%	++ (activity was measured to be from 1.0 μM to 5.0 μM)	< 25%	+ (activity was measured to be greater than 5.0 μM)	25 to 100%	+ (activity was measured to be greater than 5.0 μM)
COc1ccccc1C1CCN(C2CC3CC(C)CC(C3)C2)CC1 (stereo not shown) [Compound 112]	25 to 100%	+ (activity was measured to be greater than 5.0 μM)	< 25%	+ (activity was measured to be greater than 5.0 μM)	< 25%	+ (activity was measured to be greater than 5.0 μM)	< 25%	+ (activity was measured to be greater than 5.0 μM)
COc1ccccc1C1CCN(C2CCCCC2)CC1 [Compound 113]	25 to 100%	+++ (activity was measured to be less than 1.0 μM)	25 to 100%	++ (activity was measured to be from 1.0 μM to 5.0 μM)	< 25%	+ (activity was measured to be greater than 5.0 μM)	< 25%	+ (activity was measured to be greater than 5.0 μM)
c1ccc(COc2ccccc2C2CCN([C@H]3C[C@H]4CC[C@H]3C4)CC2)cc1 [Compound 114]	25 to 100%	++ (activity was measured to be from 1.0 μM to 5.0 μM)	< 25%	+ (activity was measured to be greater than 5.0 μM)	< 25%	+ (activity was measured to be greater than 5.0 μM)	< 25%	+ (activity was measured to be greater than 5.0 μM)
COc1ccc(Cl)cc1C1CCN(C2CCC(F)(F)CC2)CC1 [Compound 115]	25 to 100%	++ (activity was measured to be from 1.0 μM to 5.0 μM)	25 to 100%	+ (activity was measured to be greater than 5.0 μM)	< 25%	+ (activity was measured to be greater than 5.0 μM)	< 25%	+ (activity was measured to be greater than 5.0 μM)
COc1cccc(-c2ccccc2C2CCN([C@H]3C[C@H]4CC[C@H]3C4)CC2)c1 [Compound 116]	25 to 100%	++ (activity was measured to be from 1.0 μM to 5.0 μM)	25 to 100%	+ (activity was measured to be greater than 5.0 μM)	< 25%	+ (activity was measured to be greater than 5.0 μM)	< 25%	+ (activity was measured to be greater than 5.0 μM)
COc1ccccc1[C@H]1CCN([C@@H]2C[C@H]3CC[C@H]2C3)C[C@@H]1O [Compound 117]	25 to 100%	+ (activity was measured to be greater than 5.0 μM)	< 25%	+ (activity was measured to be greater than 5.0 μM)	< 25%	+ (activity was measured to be greater than 5.0 μM)	< 25%	+ (activity was measured to be greater than 5.0 μM)
CCOC(=O)N1C2CCC1CC(N1CCC(OC)(c3cc(F)ccc3OC)CC1)C2 (stereo not shown) [Compound 118]	25 to 100%	+++ (activity was measured to be less than 1.0 μM)	25 to 100%	+++ (activity was measured to be less than 1.0 μM)	< 25%	+ (activity was measured to be greater than 5.0 μM)	< 25%	+ (activity was measured to be greater than 5.0 μM)
COc1cccc(C(=O)COc2ccccc2C2CCN([C@H]3C[C@H]4CC[C@H]3C4)CC2)c1 [Compound 119]	25 to 100%	++ (activity was measured to be from 1.0 μM to 5.0 μM)	25 to 100%	+ (activity was measured to be greater than 5.0 μM)	< 25%	+ (activity was measured to be greater than 5.0 μM)	25 to 100%	+ (activity was measured to be greater than 5.0 μM)
COc1ccc(-c2ccc(C(F)(F)F)cc2)cc1C1CCN([C@H]2C[C@H]3CC[C@H]2C3)CC1 [Compound 120]	25 to 100%	+ (activity was measured to be greater than 5.0 μM)	25 to 100%	+ (activity was measured to be greater than 5.0 μM)	< 25%	+ (activity was measured to be greater than 5.0 μM)	< 25%	+ (activity was measured to be greater than 5.0 μM)
COc1ccc(Cl)cc1C1CCN(CC2CCOCC2)CC1 [Compound 121]	25 to 100%	+++ (activity was measured to be less than 1.0 μM)	25 to 100%	++ (activity was measured to be from 1.0 μM to 5.0 μM)	< 25%	+ (activity was measured to be greater than 5.0 μM)	< 25%	+ (activity was measured to be greater than 5.0 μM)
CCOC(=O)N1CCC(CN2CCC(F)(c3cc(Cl)ccc3OC)CC2)CC1 [Compound 122]	25 to 100%	+++ (activity was measured to be less than 1.0 μM)	25 to 100%	++ (activity was measured to be from 1.0 μM to 5.0 μM)	< 25%	+ (activity was measured to be greater than 5.0 μM)	25 to 100%	++ (activity was measured to be from 1.0 μM to 5.0 μM)
COc1ccc(Cl)cc1C1(OC)CCN(CC2CCOCC2)CC1 [Compound 123]	< 25%	+ (activity was measured to be greater than 5.0 μM)	25 to 100%	++ (activity was measured to be from 1.0 μM to 5.0 μM)	< 25%	+ (activity was measured to be greater than 5.0 μM)	< 25%	+ (activity was measured to be greater than 5.0 μM)
COc1ccc(-c2ccncc2)cc1C1CCN([C@@H]2C[C@@H]3CC[C@H]2C3)CC1 [Compound 124, 4-(3-(1-((1S,2R,4R)-bicyclo[2.2.1]heptan-2-yl)piperidin-4-yl)-4-methoxyphenyl) pyridine]	< 25%	+ (activity was measured to be greater than 5.0 μM)	< 25%	+ (activity was measured to be greater than 5.0 μM)	< 25%	+ (activity was measured to be greater than 5.0 μM)	< 25%	+ (activity was measured to be greater than 5.0 μM)
